Values of other authors as cited in US20250341511A1, “MASS-TAG LABELING OF THE CELLULAR SECRETOME” (The Governing Council of the University of Toronto, priority 2022, published 2025).

Settings: relative to required assay concentration

C[Te]CCCOC(=O)NCCNC(=O)Cn1ccnc1[N+](=O)[O-] [Telox]
metabolic LD50: close to the required assay concentration
